Blank lines part the entries; values can stand above or below the molecule they belong to.
Legend:
Assay type in all cases: physicochemical
[1] = Measurement of an optically active substance ratio (chiral stationary phase column); details: p-toluenesulfonate; for Optically active substance ratio ((+)/(−)): crystals, Chiralcel OD-H column; for Optically active substance ratio of the suplatast tosilate in the mother liquor: mother liquor after crystallization
Method: [Test 1] Measurement of an Optically Active Substance Ratio
The optically active substance ratio of each of the suplatast tosilate crystals of the present invention obtained in Examples 1 to 3, and the suplatast tosilate first crystals obtained in Comparative Examples 1 to 3 was measured using a chiral stationary phase column (“Chiralcel OD-H”, 4.6 mm×25 cm, product of Daicel Chemical Industries) with n-hexane ethanol-trifluoroacetic acid-diethylamine (750:250:5:1) as a mobile phase.
The optically active substance ratio of the suplatast tosilate in the mother liquor in each of Examples and Comparative Examples was measured as described above. The ratio in Example 1 to 6 was from 0.99 to 1.01, while it was 0.57 in Comparative Example 1, 0.87 in Comparative Example 2, and 0.42 in Comparative Example 3. Accordingly, the invention crystal can be recovered again from the mother liquor, while the first crystal cannot be recovered from the mother liquor. Such a phenomenon owes to optical enrichment phenomenon typically observed upon formation of the first crystal.

[2] = Heat Stability Test (60° C., 3 months, glass air-tight container); details: for Decomposition product (wt. %) formed, Lot 1: Lot 1, p-toluenesulfonate
Method: [Test 4] Heat Stability Test
The invention crystals of suplatast tosilate obtained in accordance with the process of Example 1 and commercially available suplatast tosilate first crystals, each 3.6 g, were stored at 60° C. for 3 months in a glass air-tight container and the formation amount and powder X-ray diffraction of a decomposition product ((±)-4-(3-ethoxy-2-hydroxypropoxy) aniline derivative) were measured to investigate heat storage stability.

[3] = Hygroscopicity Test 1 (storage at 25° C., 75% RH, time-dependent weight change); details: relative humidity 75%, FIG. 4
Method: FIG. 4 is a graph illustrating a water content increase, at 25° C. and relative humidity of 75%, of the invention crystal of suplatast tosilate (Example 1) suplatast tosilate first crystal (commercially available product) and suplatast tosilate second crystal (Comparative Example 4).
[Test 2] Hygroscopicity Test 1
In a dessicator (adjusted to 75% RH) having a saturated aqueous solution of sodium chloride charged therein, 1.0 g of each of the suplatast tosilate crystals of the invention obtained in Example 1, commercially available suplatast tosilate first crystals and the suplatast tosilate second crystals obtained in Comparative Example 4 were stored at 25° C. and a time-dependent weight change was measured.

[4] = Hygroscopicity Test 2 (storage at 40° C., relative humidity 50%, 14 days); details: for Change in appearance on storage: p-toluenesulfonate
Method: [Test 3] Hygroscopicity Test 2
Each of the suplatast tosilate crystals of the invention obtained in Example 1, and the second crystals obtained in accordance with the process of Comparative Example 4 (each, 0.5 g) were stored at 40° C. and relative humidity of 50% for 14 days, followed by observation of their appearance, powder X-ray diffraction and differential scanning calorimetry (DSC) in order to investigate storage stability.

[5] = 2 months, Lot 2, p-toluenesulfonate
[6] = 2 months, Lot 3, p-toluenesulfonate
[7] = 3 months, Lot 2, p-toluenesulfonate
[8] = 3 months, Lot 3, p-toluenesulfonate

SMILES: CCOCC(O)COc1ccc(NC(=O)CC[S+](C)C)cc1.Cc1ccc(S(=O)(=O)[O-])cc1 (racemic) [Comparative Example 1, (±)-[2-[4-(3-ethoxy-2-hydroxypropoxy)phenylcarbamoyl]ethyl] dimethylsulfonium p-toluenesulfonate]
Optically active substance ratio ((+)/(−)) [1]: 1.09
Optically active substance ratio of the suplatast tosilate in the mother liquor [1]: 0.57

SMILES: CCOCC(O)COc1ccc(NC(=O)CC[S+](C)C)cc1.Cc1ccc(S(=O)(=O)[O-])cc1 (racemic) [Comparative Example 2, (±)-[2-[4-(3-ethoxy-2-hydroxypropoxy)phenylcarbamoyl]ethyl] dimethylsulfonium p-toluenesulfonate]
Optically active substance ratio ((+)/(−)) [1]: 0.97
Optically active substance ratio of the suplatast tosilate in the mother liquor [1]: 0.87

SMILES: CCOCC(O)COc1ccc(NC(=O)CC[S+](C)C)cc1.Cc1ccc(S(=O)(=O)[O-])cc1 (racemic) [Comparative Example 3, (±)-[2-[4-(3-ethoxy-2-hydroxypropoxy)phenylcarbamoyl]ethyl] dimethylsulfonium p-toluenesulfonate]
Optically active substance ratio ((+)/(−)) [1]: 0.94
Optically active substance ratio of the suplatast tosilate in the mother liquor [1]: 0.42

SMILES: CCOCC(O)COc1ccc(NC(=O)CC[S+](C)C)cc1.Cc1ccc(S(=O)(=O)[O-])cc1 (racemic) [second crystal, (±)-[2-[4-(3-ethoxy-2-hydroxypropoxy)phenylcarbamoyl]ethyl] dimethylsulfonium p-toluenesulfonate]
Change in appearance on storage [4]: showed deliquescence after storage for one week

Second part, led by results:

Optically active substance ratio ((+)/(−)) [1]: 1.00
SMILES: CCOCC(O)COc1ccc(NC(=O)CC[S+](C)C)cc1.Cc1ccc(S(=O)(=O)[O-])cc1 (racemic) [Example 1, (±)-[2-[4-(3-ethoxy-2-hydroxypropoxy)phenylcarbamoyl]ethyl] dimethylsulfonium p-toluenesulfonate]

Optically active substance ratio ((+)/(−)) [1]: 1.00
SMILES: CCOCC(O)COc1ccc(NC(=O)CC[S+](C)C)cc1.Cc1ccc(S(=O)(=O)[O-])cc1 (racemic) [Example 2, (±)-[2-[4-(3-ethoxy-2-hydroxypropoxy)phenylcarbamoyl]ethyl] dimethylsulfonium p-toluenesulfonate]

Optically active substance ratio ((+)/(−)) [1]: 1.00
SMILES: CCOCC(O)COc1ccc(NC(=O)CC[S+](C)C)cc1.Cc1ccc(S(=O)(=O)[O-])cc1 (racemic) [Example 3, (±)-[2-[4-(3-ethoxy-2-hydroxypropoxy)phenylcarbamoyl]ethyl] dimethylsulfonium p-toluenesulfonate]

Optically active substance ratio ((+)/(−)) [1]: around 1.00
SMILES: CCOCC(O)COc1ccc(NC(=O)CC[S+](C)C)cc1.Cc1ccc(S(=O)(=O)[O-])cc1 (racemic) [Example 6, (±)-[2-[4-(3-ethoxy-2-hydroxypropoxy)phenylcarbamoyl]ethyl] dimethylsulfonium p-toluenesulfonate]

Decomposition product (wt. %) formed, Lot 1 ([2]; 1 month): 0.1 wt. %
Decomposition product (wt. %) formed, Lot 2 ([2]; 1 month, Lot 2): 0.0 wt. %
Decomposition product (wt. %) formed, Lot 3 ([2]; 1 month, Lot 3): 0.0 wt. %
Decomposition product (wt. %) formed, Lot 1 ([2]; 2 months): 1.1 wt. %
Decomposition product (wt. %) formed, Lot 2 [2, 5]: 0.7 wt. %
Decomposition product (wt. %) formed, Lot 3 [2, 6]: 0.5 wt. %
Decomposition product formed after 3-month storage (over the lots) ([2]; 3 months): about 1.7 wt. %
Decomposition product (wt. %) formed, Lot 1 ([2]; 3 months): 2.1 wt. %
Decomposition product (wt. %) formed, Lot 2 [2, 7]: 1.5 wt. %
Decomposition product (wt. %) formed, Lot 3 [2, 8]: 1.4 wt. %
SMILES: CCOCC(O)COc1ccc(NC(=O)CC[S+](C)C)cc1.Cc1ccc(S(=O)(=O)[O-])cc1 (racemic) [First crystal, (±)-[2-[4-(3-ethoxy-2-hydroxypropoxy)phenylcarbamoyl]ethyl] dimethylsulfonium p-toluenesulfonate]

Change in appearance on storage [4]: almost free from a change in appearance
Decomposition product (wt. %) formed, Lot 1 ([2]; 1 month): 0.0 wt. %
Decomposition product (wt. %) formed, Lot 2 ([2]; 1 month, Lot 2): 0.0 wt. %
Decomposition product (wt. %) formed, Lot 3 ([2]; 1 month, Lot 3): 0.0 wt. %
Decomposition product (wt. %) formed, Lot 1 ([2]; 2 months): 0.0 wt. %
Decomposition product (wt. %) formed, Lot 2 [2, 5]: 0.0 wt. %
Decomposition product (wt. %) formed, Lot 3 [2, 6]: 0.0 wt. %
Decomposition product after 3 months (in words) ([2]; 3 months): no decomposition product appeared
Decomposition product (wt. %) formed, Lot 1 ([2]; 3 months): 0.0 wt. %
Decomposition product (wt. %) formed, Lot 2 [2, 7]: 0.0 wt. %
Decomposition product (wt. %) formed, Lot 3 [2, 8]: 0.0 wt. %
SMILES: CCOCC(O)COc1ccc(NC(=O)CC[S+](C)C)cc1.Cc1ccc(S(=O)(=O)[O-])cc1 (racemic) [Invention crystal, (±)-[2-[4-(3-ethoxy-2-hydroxypropoxy)phenylcarbamoyl]ethyl] dimethylsulfonium p-toluenesulfonate]
Hygroscopicity (water content increase) [3]: lower hygroscopicity than each of the first crystal and second crystal
Change in powder X-ray diffraction peaks and DSC on storage [4]: almost free from a change in powder X-ray diffraction peaks and in DSC
